pIC50: −log10 of the molar value.
Legend:
[1] = biological target: T1, PKB-PIF fusion protein (protein kinase B) (Homo sapiens, UniProt P31751); test: Measurement of PKB kinase inhibitory activity (IC50); format: biochemical; details: 0.6 nM enzyme, 30 μM ATP/γ33P-ATP, 25 μM AKTide-2T substrate; read-out: PKB IC50
T1 construct: PIF (fusion partner); made in house
Experimental: The reaction is allowed to proceed for 20 minutes before addition of excess orthophosphoric acid to quench activity. The reaction mixture is transferred to a phosphocellulose filter plate where the peptide binds and the unused ATP is washed away. After washing, scintillant is added and the incorporated activity measured by scintillation counting.

[2] = biological target: T2, PKA catalytic domain (Homo sapiens, UniProt P17612); test: Measurement of PKA kinase inhibitory activity (IC50); format: biochemical; details: 1 nM enzyme, 40 μM ATP/γ33P-ATP, 5 μM substrate; read-out: PKA IC50
T2 construct: PKA catalytic domain from Upstate Biotechnology (#14-440); purchased Upstate Biotechnology 14-440
Experimental: A final concentration of 1 nM enzyme is used in a buffer that includes 20 mM MOPS pH 7.2, 40 μM ATP/γ^33P-ATP and 5 μM substrate. […] The reaction is allowed to proceed for 20 minutes before addition of excess orthophosphoric acid to quench activity. Unincorporated γ^33P-ATP is then separated from phosphorylated proteins on a Millipore MAPH filter plate. The plates are washed, scintillant is added and the plates are then subjected to counting on a Packard Topcount.

[3] = clinical studies; cited from earlier work
[4] = system: PKG; details: cited from earlier work
[5] = system: PKC; details: cited from earlier work
[6] = system: OVCAR-3 tumour cells; details: concentrations of 50 and 100 microM; cited from earlier work
[7] = doses 10 times more than were needed for antitumour activity; cited from earlier work
[8] = system: Acute Promyelocytic Leukemia (APL) patients; details: cited from earlier work
[9] = system: P-glycoprotein-overexpressing subline of leukemic cell line CCRF-CEM; details: read-out: IC50 against P-glycoprotein-overexpressing subline; cited from earlier work
[10] = antitumour agent; cited from earlier work

T1 sequence (P31751 with tags, fused parts or gaps limits assumed): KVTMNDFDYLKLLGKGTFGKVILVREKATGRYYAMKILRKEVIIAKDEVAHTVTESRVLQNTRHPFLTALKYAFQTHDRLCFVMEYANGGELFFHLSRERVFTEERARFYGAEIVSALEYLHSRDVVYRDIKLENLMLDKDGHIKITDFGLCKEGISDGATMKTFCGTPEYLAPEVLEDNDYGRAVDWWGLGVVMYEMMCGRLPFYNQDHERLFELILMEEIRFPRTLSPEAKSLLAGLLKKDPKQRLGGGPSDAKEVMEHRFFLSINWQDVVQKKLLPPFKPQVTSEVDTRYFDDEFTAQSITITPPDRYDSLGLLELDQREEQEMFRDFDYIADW

## COc1ccc(C2(c3ccc(-c4cn[nH]c4)cc3)CCNCC2)cc1Cl [Example 86, 4-(3-Chloro-4-methoxy-phenyl)-4-[4-(1H-pyrazol-4-yl)-phenyl]-piperidine]
[1]
  pIC50: > 6.00
[2]
  pIC50: > 6.00

## NCCC(c1ccc(-c2cn[nH]c2)cc1)c1cccc(Cl)c1 (stereo not drawn) [Example 90, 3-(3-Chloro-phenyl)-3-[4-(1H-pyrazol-4-yl)-phenyl]-propylamine]
[1]
  pIC50: > 6.00
[2]
  pIC50: > 6.00

## CCCCCCCCCCCCCCCCCCOP(=O)([O-])OC1CC[N+](C)(C)CC1 [KRX-0401, Perifosine]
[3]
  half-life: ~100 h

## O=S(=O)(NCCNCC=C(c1ccccc1)c1ccccc1)c1cccc2cnccc12 [NL-71-101]
[4]
  pIC50: 4.44
[5]
  pIC50: 3.98
[6]
  apoptosis in OVCAR-3 tumour cells, in which PKB is amplified: induced apoptosis

## CCOC(=O)c1ccc2[nH]c3c(OC)c4[nH]c5ccc(C(=O)OCC)cc5c4cc3c2c1 [SR-13668]
[7]
  adverse effects in mice: no adverse effects

## CC1=C(/C=C/C(C)=C/C=C/C(C)=C/C(=O)O)C(C)(C)CCC1 [Tretinoin, all-trans retinoic acid]
[8]
  remissions in APL patients: 64-100%

## C/C1=C/C[C@@H](/C(C)=C/c2csc(C)n2)OC(=O)C[C@H](O)C(C)(C)C(=O)[C@H](C)[C@@H](O)[C@@H](C)CCC1 [desoxyepothilone B]
[9]
  pIC50: 7.77

## calicheamicin
[10]
  potency relative to adriamycin: over 1,000 times
